{"source": "patent US12350273B2", "about": "“Treatment of SMA” (Hoffmann-La Roche Inc., priority 2017, dated 2025)", "key": {"Cynomolgus monkey iPSCs": {"test_system": "Cynomolgus monkey iPSCs", "assay": "Cell cycle analysis of Cynomolgus monkey iPSCs (flow cytometry)", "assay_type": "cell-based", "settings": "for percentage of events in G1 phase, mean / percentage of events in G2 phase, mean / percentage of events in S phase, mean: Cynomolgus monkey iPSCs, 24 h", "description": "For the analysis of the cell cycle, monkey stem cells were detached with Accutase (Stem Cell Technologies) and plated at 15000 cells/cm2 in 6 well plates coated with Matrigel (BD Biosciences) in MT medium supplemented with 10 ng/ml ActivinA, 15 ng/ml FGF2, and 10 μM Rock inhibitor. Cells were expanded for 1 day and then synchronized by starvation for 7 h in MT medium without supplements FGF2 and ActivinA. Before flow cytometry, cells were incubated for 24 h with fresh MT medium containing supplements FGF2 and ActivinA and test items at 80 nM, 400 nM, and 2000 nM or 30 nM rapamycin as positive control to arrest cells in G1 phase. Human stem cells were detached with Accutase (Stem Cell Technologies) and plated at 40000 cells/cm2 in 6 well plates coated with Matrigel (BD Biosciences) in mTeSR1 supplemented with 10 μM Rock Inhibitor Y-27632 (Sigma-Aldrich). Cells were expanded for 3 days with daily medium change. Since human iPSCs lose their properties during starvation by growth factor withdrawal, stem cells were synchronized with 200 ng/ml Nocodazole (Sigma-Aldrich) for 5 h and washed subsequently 2 times with mTesR1 Medium. Before flow cytometry, cells were incubated for 24 h with fresh TesR1 medium containing test items at 80 nM, 400 nM, and 2000 nM or 30 nM rapamycin as positive control to arrest cells in G1 phase.\nFor cell cycle analysis, human iPSCs were washed with PBS, detached with Accutase (Stem Cell Technologies) and collected by centrifugation. Cells were stained for 1 h at 37° C. with 600 ul of 7 AAD/Saponin/RNAse mix ([…] 7 AAD (#559925, BD), 50 μg/ml RNase, and 0.03% Saponin dissolved in FACS buffer (PBS, 5% FBS, 10 mM Hepes)). Cynomolgus monkey iPSCs were washed with PBS, detached with Accutase (Stem Cell Technologies) and collected by centrifugation. Cells were stained for 30 min at 37° C. in 300 ul standard MT medium (with FGF2 and ActivinA) containing 1 ul Vybrant Dye Cycle Violet Stain (#V35003, 1000× stock, Invitrogen) per ml medium. Additionally 2 ul 7 AAD (50 μg/ml 7 AAD) were added without permeabilization to label dead cells; cells were incubated for 10 min at 37° C. Flow cytometry analysis was performed using a Canto II cytometer (BD Biosciences) and data were analysed with the FlowJo software."}, "SMN protein": {"test_system": "SMN protein", "assay": "SMN protein (HTRF) in brain and quadriceps muscle of SMNΔ7 mice", "assay_type": "in vivo", "description": "FIG. 1A-FIG. 1D: Increase in SMN Protein Expression In Vivo • HET=heterogygous. • C/C-allele mice and SMNΔ7 mice were treated with RO7034067. One hour after the last dose, brains and quadriceps muscles were collected and levels of SMN protein were assessed by HTRF. FIG. 1A. SMN protein in brains of C/C-allele mice. FIG. 1B. SMN protein in brains of SMNΔ7 mice. FIG. 1C. SMN protein in quadriceps muscle of C/C-allele mice. FIG. 1D. SMN protein in quadriceps muscle of SMNΔ7 mice. Data represent means±SEM of 5-6 animals per group and are expressed as fold change vs. vehicle-treated controls. *=p<0.05, **=p<0.01, ***=p<0.001 vs. untreated controls.\nAdult C/C-allele mice were treated for 10 days with vehicle or RO7034067 (1, 3 or 10 mg/kg per os [PO], daily), and PND3 SMNΔ7 mice were treated for 7 days with vehicle or RO7034067 (0.1, 0.3, 1 or 3 mg/kg intraperitoneal [IP], daily). […] In SMNΔ7 mice, the SMN protein increase was only partial in both brain and muscle, reaching approximately 43% (brain) and 55% (muscle) of protein levels in heterozygous mice."}, "Aqueous solubility": {"assay": "Aqueous solubility", "assay_type": "physicochemical"}, "FMO3": {"molecular_target": "T1, FMO3 (Homo sapiens, UniProt P31513)", "T1 sequence (P31513 1-532)": "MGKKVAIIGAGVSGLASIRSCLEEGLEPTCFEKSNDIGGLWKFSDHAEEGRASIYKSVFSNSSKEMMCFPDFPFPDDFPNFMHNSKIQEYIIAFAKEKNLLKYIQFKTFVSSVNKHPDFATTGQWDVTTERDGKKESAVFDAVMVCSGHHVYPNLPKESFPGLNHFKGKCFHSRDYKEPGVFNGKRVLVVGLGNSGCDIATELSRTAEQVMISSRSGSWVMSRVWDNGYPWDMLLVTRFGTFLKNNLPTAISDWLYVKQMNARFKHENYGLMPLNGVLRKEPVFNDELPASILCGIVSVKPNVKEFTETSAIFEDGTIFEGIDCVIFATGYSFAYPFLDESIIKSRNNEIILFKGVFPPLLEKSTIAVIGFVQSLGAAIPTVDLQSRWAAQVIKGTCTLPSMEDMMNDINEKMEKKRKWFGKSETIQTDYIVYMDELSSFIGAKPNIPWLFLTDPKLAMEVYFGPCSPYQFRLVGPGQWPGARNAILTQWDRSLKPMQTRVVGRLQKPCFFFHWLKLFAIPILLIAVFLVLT", "assay": "Elimination pathway", "assay_type": "in vitro ADME"}}, "data": [{"smiles": "Cc1cn2nc(-c3cc(=O)n4cc(N5CCNC6(CC6)C5)ccc4n3)cc(C)c2n1", "note": "[RO7034067, 7-(4,7-diazaspiro[2.5]octan-7-yl)-2-(2,8-dimethylimidazo[1,2-b]pyridazin-6-yl)pyrido[1,2-a]pyrimidin-4-one]", "values": [{"measurement": "percentage of events in G1 phase, mean", "setting": "Cynomolgus monkey iPSCs; 80 nM", "value": 33.8, "unit": "%"}, {"measurement": "percentage of events in G2 phase, mean", "setting": "Cynomolgus monkey iPSCs; 80 nM", "value": 52.2, "unit": "%"}, {"measurement": "percentage of events in S phase, mean", "setting": "Cynomolgus monkey iPSCs; 80 nM", "value": 14.0, "unit": "%"}, {"measurement": "percentage of events in G1 phase, mean", "setting": "Cynomolgus monkey iPSCs; 400 nM", "value": 30.3, "unit": "%"}, {"measurement": "percentage of events in G2 phase, mean", "setting": "Cynomolgus monkey iPSCs; 400 nM", "value": 55.8, "unit": "%"}, {"measurement": "percentage of events in S phase, mean", "setting": "Cynomolgus monkey iPSCs; 400 nM", "value": 14.0, "unit": "%"}, {"measurement": "percentage of events in G1 phase, mean", "setting": "Cynomolgus monkey iPSCs; 2000 nM", "value": 25.3, "unit": "%"}, {"measurement": "percentage of events in G2 phase, mean", "setting": "Cynomolgus monkey iPSCs; 2000 nM", "value": 61.3, "unit": "%"}, {"measurement": "percentage of events in S phase, mean", "setting": "Cynomolgus monkey iPSCs; 2000 nM", "value": 13.4, "unit": "%"}, {"measurement": "effect on cell cycle", "setting": "Cynomolgus monkey iPSCs; monkey iPSCs, concentration-dependent", "value": "cell cycle arrest in G2 phase"}, {"measurement": "SMN protein in brain as share of protein levels in heterozygous mice", "setting": "SMN protein; SMNΔ7 mice, brain", "value": "approximately 43%"}, {"measurement": "SMN protein in muscle as share of protein levels in heterozygous mice", "setting": "SMN protein; SMNΔ7 mice, muscle", "value": "~55", "unit": "%"}, {"measurement": "SMN protein levels in brain and muscle tissue, maximum effect", "setting": "SMN protein; neonatal SMNΔ7 mice, 1-3 mg/kg IP daily, 7 days", "value": "2-3 fold"}, {"measurement": "increase in SMN protein possible", "setting": "SMN protein; severe SMNΔ7 mouse model", "value": "more than 100%"}, {"measurement": "aqueous solubility", "setting": "Aqueous solubility", "value": "high aqueous solubility"}, {"measurement": "elimination pathway", "setting": "FMO3", "value": "FMO3 participates on the elimination path way"}]}]}
